Test results published in patent publication US9707233B2, “Heterocyclylamines as PI3K inhibitors” (Incyte Corporation, priority 2011, dated 2017).
Counter-ions that a name gives are not always drawn.

Target: PI3Kδ (p110δ/p85α) (Homo sapiens (Human), UniProt O00329)
Assay: PI3Kδ scintillation proximity assay (Example A3)
Format: biochemical
Conditions: 20 μM ATP, 20 μM PIP2, 4 nM PI3Kδ; read-out: PI3Kδ SPA IC50
Summary of the method: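 IC50 derived by fitting percent control activity against log inhibitor concentration. Radiolabelled product was measured by scintillation counting on WGA SPA beads after overnight shaking. The kinase reaction used 4 nM p110δ/p85α, 20 μM ATP (with [γ-33P]ATP) and 20 μM PIP2 at pH 6.7 and room temperature, with 0.5% DMSO final.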

Sequence of PI3Kδ (p110δ/p85α) (O00329 whole entry): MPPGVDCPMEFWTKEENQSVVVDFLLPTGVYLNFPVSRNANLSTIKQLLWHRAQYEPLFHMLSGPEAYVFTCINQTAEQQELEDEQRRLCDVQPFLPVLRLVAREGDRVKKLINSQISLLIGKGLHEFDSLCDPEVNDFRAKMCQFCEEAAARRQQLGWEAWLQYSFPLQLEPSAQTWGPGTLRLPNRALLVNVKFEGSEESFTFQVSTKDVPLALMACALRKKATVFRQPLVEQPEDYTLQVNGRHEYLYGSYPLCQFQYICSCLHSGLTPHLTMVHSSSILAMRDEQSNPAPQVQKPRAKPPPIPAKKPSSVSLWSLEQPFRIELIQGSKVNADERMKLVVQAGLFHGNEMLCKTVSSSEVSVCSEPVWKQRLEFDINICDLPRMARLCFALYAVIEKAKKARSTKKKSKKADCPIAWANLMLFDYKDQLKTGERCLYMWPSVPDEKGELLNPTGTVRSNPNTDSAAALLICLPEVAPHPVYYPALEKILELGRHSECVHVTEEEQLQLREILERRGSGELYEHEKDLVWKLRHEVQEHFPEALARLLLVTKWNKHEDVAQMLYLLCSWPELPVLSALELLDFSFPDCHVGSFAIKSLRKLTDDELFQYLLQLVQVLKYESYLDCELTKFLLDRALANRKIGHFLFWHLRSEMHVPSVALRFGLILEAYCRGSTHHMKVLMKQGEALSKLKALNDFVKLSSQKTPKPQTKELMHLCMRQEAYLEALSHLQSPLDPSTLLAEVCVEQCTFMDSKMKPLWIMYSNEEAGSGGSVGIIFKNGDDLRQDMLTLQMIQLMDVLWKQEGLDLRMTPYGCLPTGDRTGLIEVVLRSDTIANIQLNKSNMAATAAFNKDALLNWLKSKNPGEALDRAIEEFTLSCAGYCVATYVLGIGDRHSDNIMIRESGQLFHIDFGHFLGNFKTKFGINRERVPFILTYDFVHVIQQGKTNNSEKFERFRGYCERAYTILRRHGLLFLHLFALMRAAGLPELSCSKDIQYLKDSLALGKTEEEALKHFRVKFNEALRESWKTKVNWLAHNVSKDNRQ
Sequence of PI3Kδ (p110δ/p85α) (P27986 whole entry partner): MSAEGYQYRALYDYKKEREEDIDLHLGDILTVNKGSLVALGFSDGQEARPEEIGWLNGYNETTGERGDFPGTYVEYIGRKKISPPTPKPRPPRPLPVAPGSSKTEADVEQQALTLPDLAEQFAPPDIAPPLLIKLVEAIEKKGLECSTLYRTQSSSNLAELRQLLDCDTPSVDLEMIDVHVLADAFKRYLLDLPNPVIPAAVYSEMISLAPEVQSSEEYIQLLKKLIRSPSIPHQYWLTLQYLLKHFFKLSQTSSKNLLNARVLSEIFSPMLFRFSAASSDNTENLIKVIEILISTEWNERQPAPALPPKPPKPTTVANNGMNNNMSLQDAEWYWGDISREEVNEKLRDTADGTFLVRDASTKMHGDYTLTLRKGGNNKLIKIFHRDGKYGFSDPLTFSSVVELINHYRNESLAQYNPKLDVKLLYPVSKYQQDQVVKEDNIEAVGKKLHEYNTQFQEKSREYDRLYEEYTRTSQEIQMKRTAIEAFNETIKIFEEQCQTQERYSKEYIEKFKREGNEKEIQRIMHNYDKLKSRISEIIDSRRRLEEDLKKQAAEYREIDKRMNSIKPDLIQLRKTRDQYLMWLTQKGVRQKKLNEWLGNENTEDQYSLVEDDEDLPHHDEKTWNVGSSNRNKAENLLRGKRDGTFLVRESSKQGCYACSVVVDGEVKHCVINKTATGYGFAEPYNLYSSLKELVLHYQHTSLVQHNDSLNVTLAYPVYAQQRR

IC50 [µM]	SMILES
0.05 to 0.2	CCOc1c(C(C)n2nc(C)c3c(N)ncnc32)cc(Cl)c(F)c1C1CNC(=O)O1 (single isomer, unassigned) [Example 356, 5-{3-[1-(4-amino-3-methyl-1H-pyrazolo[3,4-d]pyrimidin-1-yl)ethyl]-5-chloro-2-ethoxy-6-fluorophenyl}-1,3-oxazolidin-2-one]
≤ 0.01	CCOc1c(C(C)n2nc(C(F)F)c3c(N)ncnc32)cc(Cl)c(F)c1C1CN(CC(C)(C)O)C1 (racemic) [Example 153, 1-[3-(3-{1-[4-Amino-3-(difluoromethyl)-1H-pyrazolo[3,4-d]pyrimidin-1-yl]ethyl}-5-chloro-2-ethoxy-6-fluorophenyl)azetidin-1-yl]-2-methylpropan-2-ol]
0.05 to 0.2	CCOc1c(C(C)n2nc(CC)c3c(N)ncnc32)cc(Cl)c(C)c1-c1ccc(C(=O)N(C)C)nc1 (racemic) [Example 81, 5-{3-[1-(4-Amino-3-ethyl-1H-pyrazolo[3,4-d]pyrimidin-1-yl)ethyl]-5-chloro-2-ethoxy-6-methylphenyl}-N,N-dimethylpyridine-2-carboxamide]
≤ 0.01	CCOc1c(C(C)n2nc(C)c3c(N)ncnc32)cc(Cl)c(C)c1-c1cnn(CC(=O)NC)c1 (single isomer, unassigned) [Example 204, 2-(4-(3-(1-(4-amino-3-methyl-1H-pyrazolo[3,4-d]pyrimidin-1-yl)ethyl)-5-chloro-2-ethoxy-6-methylphenyl)-1H-pyrazol-1-yl)-N-methylacetamide]
≤ 0.01	CNC(=O)c1ccc(-c2c(C)c(Cl)cc(C(C)n3nc(C)c4c(N)ncnc43)c2OC)cc1F (single isomer, unassigned) [Example 22, 3′-[1-(4-Amino-3-methyl-1H-pyrazolo[3,4-d]pyrimidin-1-yl)ethyl]-5′-chloro-3-fluoro-2′-methoxy-N,6′-dimethylbiphenyl-4-carboxamide trifluoroacetate]
0.05 to 0.2	COc1c(C(C)n2ncc3c(N)ncnc32)cc(Cl)c(C)c1-c1ccnc(C(=O)NCCO)c1 (racemic) [Example 39, 4-{3-[1-(4-amino-1H-pyrazolo[3,4-d]pyrimidin-1-yl)ethyl]-5-chloro-2-methoxy-6-methylphenyl}-N-(2-hydroxyethyl)pyridine-2-carboxamide]
≤ 0.01	CCOc1c(C(C)n2nc(C)c3c(N)ncnc32)cc(Cl)c(C#N)c1C1CN(C(=O)OC)C1 (single isomer, unassigned) [Example 252, Methyl 3-{3-[1-(4-amino-3-methyl-1H-pyrazolo[3,4-d]pyrimidin-1-yl)ethyl]-5-chloro-6-cyano-2-ethoxyphenyl}azetidine-1-carboxylate]
≤ 0.01	CCOc1c(C(C)n2nc(C)c3c(N)ncnc32)cc(Cl)c(C#N)c1C1CNC(=O)C1 (single isomer, unassigned) [Example 352, 4-[1-(4-amino-3-methyl-1H-pyrazolo[3,4-d]pyrimidin-1-yl)ethyl]-6-chloro-3-ethoxy-2-(5-oxopyrrolidin-3-yl)benzonitrile]
≤ 0.01	CCOc1c(C(C)n2nc(C)c3c(N)ncnc32)cc(Cl)c(C#N)c1-c1cncc(C#N)c1 (single isomer, unassigned) [Example 330, 5-{3-[1-(4-amino-3-methyl-1H-pyrazolo[3,4-d]pyrimidin-1-yl)ethyl]-5-chloro-6-cyano-2-ethoxyphenyl}nicotinonitrile]
≤ 0.01	CCOc1c(C(C)n2nc(C)c3c(N)ncnc32)cc(Cl)c(C)c1C1CN(CCO)C1 (racemic) [Example 95, 2-(3-{3-[1-(4-Amino-3-methyl-1H-pyrazolo[3,4-d]pyrimidin-1-yl)ethyl]-5-chloro-2-ethoxy-6-methylphenyl}azetidin-1-yl)ethanol bis(trifluoroacetate)]

SMILES	IC50 [µM]
CCOc1c(C(C)n2nc(C)c3c(N)ncnc32)cc(Cl)c(C)c1C1CNC(=O)C1 (single isomer, unassigned) [Example 310, 4-{3-[1-(4-amino-3-methyl-1H-pyrazolo[3,4-d]pyrimidin-1-yl)ethyl]-5-chloro-2-ethoxy-6-methylphenyl}pyrrolidin-2-one]	≤ 0.01
